From patent publication US9944602B2, “Piperidinone herbicides” (E. I. DU PONT DE NEMOURS AND COMPANY, priority 2014, dated 2018)

Experiments:
Format in all cases: in vivo
[1] = test system: barnyardgrass (Echinochloa crus-galli); assay: Test A preemergence barnyardgrass; settings: 0 to 100 scale, 0 no effect, 100 complete control
Outline: (§1)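 Plants were grown in a blend of loam soil and sand. For preemergence testing the soil was sprayed directly after seeding, while postemergence testing used seedlings 2–10 cm high at one to two leaves; all treatments were rated visually for injury (0–100) after ~10 d.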

kochia (Kochia scoparia) [2] = assay: Test A preemergence kochia; settings: 0 to 100 scale, 0 no effect, 100 complete control
Outline: as §1

[3] = test system: ragweed (common ragweed, Ambrosia elatior); assay: Test A preemergence ragweed; settings: 0 to 100 scale, 0 no effect, 100 complete control
Outline: as §1

[4] = test system: ryegrass, Italian (Italian ryegrass, Lolium multiflorum); assay: Test A preemergence ryegrass, Italian; settings: 0 to 100 scale, 0 no effect, 100 complete control
Outline: as §1

[5] = test system: foxtail, giant (giant foxtail, Setaria faberii); assay: Test A preemergence foxtail, giant; settings: 0 to 100 scale, 0 no effect, 100 complete control
Outline: as §1

[6] = test system: pigweed (Amaranthus retroflexus); assay: Test A preemergence pigweed; settings: 0 to 100 scale, 0 no effect, 100 complete control
Outline: as §1

[7] = test system: barnyardgrass (Echinochloa crus-galli); assay: Test A postemergence barnyardgrass; settings: 0 to 100 scale, 0 is no effect, 100 is complete control
Outline: as §1

kochia (Kochia scoparia) [8] = assay: Test A postemergence kochia; settings: 0 to 100 scale, 0 is no effect, 100 is complete control
Outline: as §1

[9] = test system: ragweed (common ragweed, Ambrosia elatior); assay: Test A postemergence ragweed; settings: 0 to 100 scale, 0 is no effect, 100 is complete control
Outline: as §1

[10] = test system: ryegrass, Italian (Italian ryegrass, Lolium multiflorum); assay: Test A postemergence ryegrass, Italian; settings: 0 to 100 scale, 0 is no effect, 100 is complete control
Outline: as §1

[11] = test system: foxtail, giant (giant foxtail, Setaria faberii); assay: Test A postemergence foxtail, giant; settings: 0 to 100 scale, 0 is no effect, 100 is complete control
Outline: as §1

[12] = test system: pigweed (Amaranthus retroflexus); assay: Test A postemergence pigweed; settings: 0 to 100 scale, 0 is no effect, 100 is complete control
Outline: as §1

[13] = test system: wheat (Triticum aestivum); assay: Test A postemergence wheat; settings: 0 to 100 scale, 0 is no effect, 100 is complete control
Outline: as §1

corn (Zea mays) = assay: Test A postemergence corn; settings: 0 to 100 scale, 0 is no effect, 100 is complete control
Outline: as §1

[14] = test system: blackgrass (Alopecurus myosuroides); assay: Test A postemergence blackgrass; settings: 0 to 100 scale, 0 is no effect, 100 is complete control
Outline: as §1

[15] = test system: galium (catchweed bedstraw, Galium aparine); assay: Test A postemergence galium; settings: 0 to 100 scale, 0 is no effect, 100 is complete control
Outline: as §1

rice (Oryza sativa) = assay: Test B flooded paddy test rice; settings: Table B, Flood, scale 0 to 100
Outline: (§2)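 Visual injury relative to controls was scored after 13 to 15 d in the greenhouse. Treatment was by adding compound straight to flood water 3 cm deep, maintained for the whole test, on plants at the 2-leaf stage.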

[16] = test system: sedge, umbrella (small-flower umbrella sedge, Cyperus difformis); assay: Test B flooded paddy test sedge, umbrella; settings: Table B, Flood, scale 0 to 100
Outline: as §2

[17] = test system: ducksalad (Heteranthera limosa); assay: Test B flooded paddy test ducksalad; settings: Table B, Flood, scale 0 to 100
Outline: as §2

[18] = test system: barnyardgrass (Echinochloa crus-galli); assay: Test B flooded paddy test barnyardgrass; settings: Table B, Flood, scale 0 to 100
Outline: as §2

Compound | Barnyardgrass plant response rating ([1]; 125 g ai/ha) | Barnyardgrass plant response rating ([1]; 500 g ai/ha) | Kochia plant response rating (kochia (Kochia scoparia) [2]; 125 g ai/ha) | Kochia plant response rating (kochia (Kochia scoparia) [2]; 500 g ai/ha) | Ragweed plant response rating ([3]; 125 g ai/ha) | Ragweed plant response rating ([3]; 500 g ai/ha) | Ryegrass, Italian plant response rating ([4]; 125 g ai/ha) | Ryegrass, Italian plant response rating ([4]; 500 g ai/ha) | Foxtail, Giant plant response rating ([5]; 125 g ai/ha) | Foxtail, Giant plant response rating ([5]; 500 g ai/ha) | Pigweed plant response rating ([6]; 125 g ai/ha) | Pigweed plant response rating ([6]; 500 g ai/ha) | Plant response rating, Barnyardgrass ([7]; 125 g ai/ha) | Plant response rating, Barnyardgrass ([7]; 500 g ai/ha) | Plant response rating, Kochia (kochia (Kochia scoparia) [8]; 125 g ai/ha) | Plant response rating, Kochia (kochia (Kochia scoparia) [8]; 500 g ai/ha) | Plant response rating, Ragweed ([9]; 125 g ai/ha) | Plant response rating, Ragweed ([9]; 500 g ai/ha) | Plant response rating, Ryegrass, Italian ([10]; 125 g ai/ha) | Plant response rating, Ryegrass, Italian ([10]; 500 g ai/ha) | further results
O=C1NCCC(c2cccc(C(F)F)c2)C1C(=O)Nc1ccccc1F (stereo not drawn) [Compound 48] | 40 | 90 | 0 | 0 | 0 | 0 | 0 | 0 | 70 | 90 | 0 | 0 | 30 | 80 | 0 | 0 | 0 | 0 | 0 | 0 | Plant response rating, Foxtail, Giant ([11]; 125 g ai/ha): 0; Plant response rating, Foxtail, Giant ([11]; 500 g ai/ha): 30; Plant response rating, Pigweed ([12]; 125 g ai/ha): 0; Plant response rating, Pigweed ([12]; 500 g ai/ha): 0; Plant response rating, Wheat ([13]; 125 g ai/ha): 0; Plant response rating, Wheat ([13]; 500 g ai/ha): 0; Plant response rating, Corn (corn (Zea mays); 125 g ai/ha): 0; Plant response rating, Corn (corn (Zea mays); 500 g ai/ha): 0; Plant response rating, Blackgrass ([14]; 125 g ai/ha): 0; Plant response rating, Blackgrass ([14]; 500 g ai/ha): 0; Plant response rating, Galium ([15]; 125 g ai/ha): 0; Plant response rating, Galium ([15]; 500 g ai/ha): 0; Plant response rating (rice (Oryza sativa); 250 g ai/ha): 15; Plant response rating ([16]; 250 g ai/ha): 0; Plant response rating ([17]; 250 g ai/ha): 60; Plant response rating ([18]; 250 g ai/ha): 20
O=C(Nc1ccccc1C(F)(F)F)C1C(=O)N(C2CC2)CCC1c1ccc(F)cc1 (stereo not drawn) [Compound 50] | 0 | 0 | 0 | 0 | 0 | 0 | 0 | 0 | 0 | 40 | 0 | 0 | 0 | 0 | 0 | 0 | 0 | 0 | 0 | 0 | Plant response rating, Foxtail, Giant ([11]; 125 g ai/ha): 0; Plant response rating, Foxtail, Giant ([11]; 500 g ai/ha): 0; Plant response rating, Pigweed ([12]; 125 g ai/ha): 0; Plant response rating, Pigweed ([12]; 500 g ai/ha): 0; Plant response rating, Wheat ([13]; 125 g ai/ha): 0; Plant response rating, Wheat ([13]; 500 g ai/ha): 0; Plant response rating, Corn (corn (Zea mays); 125 g ai/ha): 0; Plant response rating, Corn (corn (Zea mays); 500 g ai/ha): 0; Plant response rating, Blackgrass ([14]; 125 g ai/ha): 0; Plant response rating, Blackgrass ([14]; 500 g ai/ha): 0; Plant response rating, Galium ([15]; 125 g ai/ha): 0; Plant response rating, Galium ([15]; 500 g ai/ha): 0; Plant response rating (rice (Oryza sativa); 250 g ai/ha): 0; Plant response rating ([16]; 250 g ai/ha): 0; Plant response rating ([17]; 250 g ai/ha): 0; Plant response rating ([18]; 250 g ai/ha): 0
O=C1NCCC(c2cccc(OC(F)(F)F)c2)C1C(=O)Nc1ccccc1F (racemic) [Compound 37] | 40 | 70 | 0 | 0 | 0 | 0 | 0 | 0 | 70 | 90 | 0 | 0 | 60 | 80 | 0 | 0 | 0 | 0 | 0 | 20 | Plant response rating, Foxtail, Giant ([11]; 125 g ai/ha): 20; Plant response rating, Foxtail, Giant ([11]; 500 g ai/ha): 70; Plant response rating, Pigweed ([12]; 125 g ai/ha): 0; Plant response rating, Pigweed ([12]; 500 g ai/ha): 0; Plant response rating, Wheat ([13]; 125 g ai/ha): 0; Plant response rating, Wheat ([13]; 500 g ai/ha): 0; Plant response rating, Corn (corn (Zea mays); 125 g ai/ha): 0; Plant response rating, Corn (corn (Zea mays); 500 g ai/ha): 0; Plant response rating, Blackgrass ([14]; 125 g ai/ha): 0; Plant response rating, Blackgrass ([14]; 500 g ai/ha): 0; Plant response rating, Galium ([15]; 125 g ai/ha): 0; Plant response rating, Galium ([15]; 500 g ai/ha): 0; Plant response rating (rice (Oryza sativa); 250 g ai/ha): 0; Plant response rating ([16]; 250 g ai/ha): 0; Plant response rating ([17]; 250 g ai/ha): 90; Plant response rating ([18]; 250 g ai/ha): 35
O=C1NCCC(c2cccc(Cl)c2)C1C(=O)Nc1ccccc1C(F)(F)F (racemic) [Compound 33] | 50 | 90 | 0 | 30 | 0 | 0 | 0 | 0 | 70 | 90 | 0 | 0 | 60 | 90 | 0 | 0 | 0 | 0 | 0 | 0 | Plant response rating, Foxtail, Giant ([11]; 125 g ai/ha): 50; Plant response rating, Foxtail, Giant ([11]; 500 g ai/ha): 90; Plant response rating, Pigweed ([12]; 125 g ai/ha): 0; Plant response rating, Pigweed ([12]; 500 g ai/ha): 0; Plant response rating, Wheat ([13]; 125 g ai/ha): 0; Plant response rating, Wheat ([13]; 500 g ai/ha): 0; Plant response rating, Corn (corn (Zea mays); 125 g ai/ha): 0; Plant response rating, Corn (corn (Zea mays); 500 g ai/ha): 0; Plant response rating, Blackgrass ([14]; 125 g ai/ha): 0; Plant response rating, Blackgrass ([14]; 500 g ai/ha): 0; Plant response rating, Galium ([15]; 125 g ai/ha): 0; Plant response rating, Galium ([15]; 500 g ai/ha): 0; Plant response rating (rice (Oryza sativa); 500 g ai/ha): 0; Plant response rating ([16]; 500 g ai/ha): 0; Plant response rating ([17]; 500 g ai/ha): 80; Plant response rating ([18]; 500 g ai/ha): 20
